Results: US7442693B2, “Diazepine compounds as ligands of the melanocortin 1 and/or 4 receptors” (SmithKline Beecham Corporation, priority 2004, dated 2008)

Columns and labels:
human MC4R = target: T1, human MC4R (Homo sapiens, UniProt P32245); assay: CHO-6xCRE-luc+ reporter gene assay, MC4R agonist activity; format: cell-based; conditions: for Emax: 4 h, percentage of the fold stimulation in the NDP-αMSH control (1×10^−7 M), human MC4R, read-out: % Max MSH; for EC50: CHO-6xCRE-luc+ cells expressing human MC4R, 4 h at 37° C., luciferase activity
T1 construct: expressed in transfected cells; host or cells: CHO-6xCRE-luc+ reporter cell line
Protocol: (§1) CHO-6×CRE-luc^+ reporter cell lines expressing human MC1R, MC3R, MC4R, and MC5R (GenBank accession numbers X65634, L06155, S77415 and U08353) and the CHO host reporter gene cell line were propagated in complete medium in T225 flasks. Forty-eight hours prior to assay, cells were harvested with 2 ml of 0.05% trypsin, washed with complete medium and plated at a concentration of 4000 cells/well in complete medium. Sixteen hours prior to the assay, the medium was removed from the cells and replaced with 90 μl/well of serum-free DMEM/F12. At the time of the assay the compounds were added in a 10 μl volume and plates were incubated for 4 h at 37° C. in a cell culture incubator. The medium was aspirated followed by the addition of 50 μl of a 1:1 mixture of LucLite™ and dPBS containing 1 mM CaCl2 and 1 mM MgCl2. The plates were then sealed and subjected to dark adaptation at room temperature for 10 min before luciferase activity was quantitated on a TopCount™ microplate scintillation counter (Packard) using 3 s/well count time. The NDP-αMSH and 154N-5 concentration-response curve data were expressed as a percentage of the fold stimulation in the NDP-αMSH control for each receptor subtype. The control value is the average of duplicate wells treated with 1×10^−7 M NDP-αMSH.

human MC1R = target: T2, human MC1R (Homo sapiens, UniProt Q01726); assay: CHO-6xCRE-luc+ reporter gene assay, MC1R agonist activity; format: cell-based; conditions: for Emax: 4 h, read-out: % of MSH
T2 construct: expressed in transfected cells; host or cells: CHO-6xCRE-luc+ reporter cell line
Protocol: as §1

[1] = percentage of the fold stimulation in the NDP-αMSH control (1×10^−7 M), human MC1R
[2] = CHO-6xCRE-luc+ cells expressing human MC1R, 4 h at 37° C., luciferase activity

T1 sequence (P32245 whole entry): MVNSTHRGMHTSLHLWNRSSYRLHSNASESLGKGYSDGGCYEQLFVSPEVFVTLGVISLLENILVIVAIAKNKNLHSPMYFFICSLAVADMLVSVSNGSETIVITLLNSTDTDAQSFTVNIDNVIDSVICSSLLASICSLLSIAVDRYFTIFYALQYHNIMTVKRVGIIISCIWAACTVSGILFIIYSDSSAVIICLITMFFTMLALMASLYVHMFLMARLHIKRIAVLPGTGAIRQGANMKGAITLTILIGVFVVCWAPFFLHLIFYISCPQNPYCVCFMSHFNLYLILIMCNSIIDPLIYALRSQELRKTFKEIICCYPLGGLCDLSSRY
T2 sequence (Q01726 whole entry): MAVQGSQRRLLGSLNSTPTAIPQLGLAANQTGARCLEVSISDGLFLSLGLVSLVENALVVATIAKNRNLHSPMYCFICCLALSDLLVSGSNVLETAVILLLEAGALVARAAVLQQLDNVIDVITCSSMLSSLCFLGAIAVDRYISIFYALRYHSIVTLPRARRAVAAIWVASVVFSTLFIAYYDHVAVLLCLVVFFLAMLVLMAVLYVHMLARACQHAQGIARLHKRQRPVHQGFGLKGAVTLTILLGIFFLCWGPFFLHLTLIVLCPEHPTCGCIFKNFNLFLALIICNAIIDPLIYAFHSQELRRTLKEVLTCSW

Emax (human MC4R)	EC50 (human MC4R)	Emax (human MC1R; [1])	EC50 (human MC1R; [2])	pEC50 (human MC1R; [2])	% of MSH (human MC1R; [1])	SMILES
51%	282 nM	85%	18.6 nM			COc1ccc(N(C(=O)CN2C=CN(c3ccccc3)C(=O)C(Cc3n[nH]c4ccccc34)C2=O)C(C)C)cc1 (single isomer, unassigned) [Example 2]
		87%	1.58 nM			O=C1C(Cc2n[nH]c3ccccc23)C(=O)N(c2ccccc2)C=CN1CC(=O)N1CCCCc2ccccc21 (single isomer, unassigned) [Example 18]
		79%	35.5 nM			CC(C)N(C(=O)CN1C=CN(c2ccccc2)C(=O)C(Cc2n[nH]c3cc(F)ccc23)C1=O)c1ccccc1 (single isomer, unassigned) [Example 21]
				8.80	86%	O=C1C(Cc2n[nH]c3ccccc23)C(=O)N(c2ccccc2)C=CN1CC(=O)N1CCCCc2ccccc21 (single isomer, unassigned) [Example 24]
56%	417 nM	68%	29.5 nM			COc1ccc(N(C(=O)CN2C=CN(c3ccccc3)C(=O)C(Cc3n[nH]c4ccccc34)C2=O)C(C)C)cc1 (stereo not shown) [Example 1]
58%	42.7 nM	73%	112 nM			CC(C)N(C(=O)CN1C=CN(c2ccccc2)C(=O)C(Cc2n[nH]c3ccccc23)C1=O)c1ccc(Cl)cc1 (stereo not shown) [Example 3]
52%	44.7 nM	74%	70.8 nM			Cc1cc(OC(F)(F)F)ccc1N(C(=O)CN1C=CN(c2ccccc2)C(=O)C(Cc2n[nH]c3ccccc23)C1=O)C(C)C (stereo not shown) [Example 4]
78%	151 nM					COC1(Cc2n[nH]c3ccccc23)C(=O)N(CC(=O)N(c2ccc(F)cc2)C(C)C)C=CN(c2ccccc2)C1=O (stereo not shown) [Example 5, 2-[2,4-dioxo-3-(1H-indazol-3-ylmethylene)-3-methoxy-5-phenyl-2,3,4,5-tetrahydro-1H-1,5-diazepin-1-yl]-N-(4-fluorophenyl) N-isopropylacetamide]
51%	204 nM	91%	22.4 nM			CC(C)N(C(=O)CN1C=CN(c2ccccc2)C(=O)C(Cc2n[nH]c3ccccc23)C1=O)c1ccc(OC(F)(F)F)cc1 (stereo not shown) [Example 6]
77%	347 nM	50%	40.7 nM			COc1cccc2c1CCCCN2C(=O)CN1C=CN(c2ccccc2)C(=O)C(Cc2n[nH]c3ccccc23)C1=O (stereo not shown) [Example 7]
53%	347 nM	72%	148 nM			CCc1ccc(N(C(=O)CN2C=CN(c3ccccc3)C(=O)C(Cc3n[nH]c4ccccc34)C2=O)C(C)C)cc1 (stereo not shown) [Example 8]
65%	389 nM	37%	200 nM			CCCc1ccc(N(C(=O)CN2C=CN(c3ccccc3)C(=O)C(Cc3n[nH]c4ccccc34)C2=O)C(C)C)cc1 (stereo not shown) [Example 9]
49%	398 nM	84%	72.4 nM			CC(C)N(C(=O)CN1C=CN(c2ccccc2)C(=O)C(Cc2n[nH]c3ccccc23)C1=O)c1ccc(I)cc1 (stereo not shown) [Example 10]
55%	417 nM	68%	145 nM			CC(C)N(C(=O)CN1C=CN(c2ccccc2)C(=O)C(Cc2n[nH]c3ccccc23)C1=O)c1ccc(C(F)(F)F)cc1 (stereo not shown) [Example 11]
56%	437 nM	61%	19.5 nM			COc1ccc(N(C(=O)CN2C=CN(c3ccccc3)C(=O)C(Cn3c(=O)[nH]c4ccccc43)C2=O)C(C)C)cc1 (stereo not shown) [Example 12]
65%	513 nM	64%	110 nM			CCOc1ccc(N(C(=O)CN2C=CN(c3ccccc3)C(=O)C(Cc3n[nH]c4ccccc34)C2=O)C(C)C)cc1 (stereo not shown) [Example 13]

Emax (human MC4R)	EC50 (human MC4R)	Emax (human MC1R; [1])	EC50 (human MC1R; [2])	pEC50 (human MC1R; [2])	% of MSH (human MC1R; [1])	SMILES
		69%	269 nM			Cc1ccc(N(C(=O)CN2C=CN(c3ccccc3)C(=O)C(Cc3n[nH]c4ccccc34)C2=O)C(C)C)cc1 (stereo not shown) [Example 14]
		61%	1.58 nM			O=C1C(Cc2n[nH]c3cc(F)ccc23)C(=O)N(c2ccccc2)C=CN1CC(=O)N1CCCCc2ccccc21 (stereo not shown) [Example 15]
		61%	1.58 nM			O=C1C(Cc2n[nH]c3ccccc23)C(=O)N(c2ccccc2)C=CN1CC(=O)N1CCCCc2ccccc21 (stereo not shown) [Example 16]
		83%	1.58 nM			COc1ccc(N(C(=O)CN2C=CN(c3ccccc3)C(=O)C(Cc3n[nH]c4cc(F)ccc34)C2=O)C(C)C)cc1 (stereo not shown) [Example 17]
		53%	14.1 nM			CC(C)N(C(=O)CN1C=CN(c2ccccc2)C(=O)C(Cc2n[nH]c3cc(F)ccc23)C1=O)c1ccc(F)cc1 (stereo not shown) [Example 19]
		51%	191 nM			CC(C)N(C(=O)CN1C=CN(c2ccccc2)C(=O)C(Cc2n[nH]c3cc(F)ccc23)C1=O)c1ccccc1 (stereo not shown) [Example 20]
		54%	50.1 nM			CC(C)N(C(=O)CN1C=CN(c2ccccc2)C(=O)C(Cc2n[nH]c3ccccc23)C1=O)c1ccc(F)cc1 (stereo not shown) [Example 22]
		72%	51.3 nM			CCCN(C(=O)CN1C=CN(c2ccccc2)C(=O)C(Cc2n[nH]c3ccccc23)C1=O)c1ccc(OC)cc1 (stereo not shown) [Example 23]
		72%	64.6 nM			CCN(C(=O)CN1C=CN(c2ccccc2)C(=O)C(Cc2n[nH]c3ccccc23)C1=O)c1ccc(OC)cc1 (stereo not shown) [Example 25]
		41%	74.1 nM			CC(C)Oc1ccc(N(C(=O)CN2C=CN(c3ccccc3)C(=O)C(Cc3n[nH]c4ccccc34)C2=O)C(C)C)cc1 (stereo not shown) [Example 26]
		95%	129 nM			COc1ccc(N(C(=O)CN2C=CN(c3ccccc3)C(=O)C(Cc3n[nH]c4c3CCCC4)C2=O)C(C)C)cc1 (stereo not shown) [Example 27]
		79%	158 nM			CC(C)N(C(=O)CN1C=CN(c2ccccc2)C(=O)C(Cc2n[nH]c3ccccc23)C1=O)c1ccc(O)cc1 (stereo not shown) [Example 28]
		103%	182 nM			COc1ccc(N(C(=O)CN2C=CN(c3ccccc3)C(=O)C(Cn3cnc4ccccc43)C2=O)C(C)C)cc1 (stereo not shown) [Example 29]
		69%	204 nM			CC1CCc2ccccc2N1C(=O)CN1C=CN(c2ccccc2)C(=O)C(Cc2n[nH]c3ccccc23)C1=O (stereo not shown) [Example 30]
		40%	224 nM			CC(C)c1ccc(N(C(=O)CN2C=CN(c3ccccc3)C(=O)C(Cc3n[nH]c4ccccc34)C2=O)C(C)C)cc1 (stereo not shown) [Example 31]
		54%	295 nM			CC(C)N(C(=O)CN1C=CN(c2ccccc2)C(=O)C(Cc2n[nH]c3ccccc23)C1=O)c1ccccc1 (stereo not shown) [Example 32]
